Columns and labels:
[1] = tested on: heart, liver and lung microfluidic modules; details: Skardal et al., Scientific Reports 7(1), 8837 (2017); cited from earlier work
[2] = tested on: HCT116 colon cancer cells; assay: Staurosporine acute toxicity on HCT116 cells in connected wells of the microfluidic device (live/dead staining); assay type: cell-based; details: for cell death (live/dead staining): 24 hours
Protocol: 20,000 HCT116 cells were plated directly on the Transwell® membrane (catalog number 3386 for Transwell® plate) in McCoy's 5A media such that the connected wells preceding them were either filled with McCoy's 5A media (50 μls) alone or filled with 25 μls of 2.5 mg/ml collagen gel, with McCoy's 5A media (50 μls) above it. The arrangement is depicted in FIG. 11A, showing three pairs of connected wells (test units), where the lower well in each connected pair (test unit) has medium only, while the upper well in each test unit has HCT116 cells inside the well.
The high-throughput microfluidic device of FIG. 5B was cleaned, assembled and sterilized via autoclaving for 60 minutes. The wells of the autoclave sterilized high-throughput microfluidic device (two-well connects) were filled with 300 μLs of media and centrifuged at 40 r.c.f for 4 minutes to fill all the channels.
After 24 hours of culture, 50 μls of fresh media with different concentrations of staurosporine were added to different wells (see FIG. 11A). The device was placed on a compressed air system and the fluid was pumped via membrane flexion under a compressed air cycle of 1.5 psi (amplitude), sinusoidal wave pattern with a frequency of 0.2. The cells were imaged with live/dead staining after 24 hours to understand the diffusion characteristics of the drug and resulting cell death induced by staurosporine. […] Note that each image of the cells in a single well is divided into quadrants.

[3] = tested on: primary human hepatocytes; assay: Hepatocyte-cancer cell crosstalk: viability of the hepatocytes after drug treatment; assay type: cell-based; details: Tegafur added to hepatocyte chamber; 72 hours
Protocol: (§1) 20,000 primary human hepatocytes (Lonza) (Hepatocyte plating medium for 4 hours, followed by hepatocyte maintenance medium with 0.3% (v/v) matrigel GFR for 20 hours) or HepG2 cells (to be transfected with CYP2A6 cDNA (as per vendor's recommendation)) were plated in one well of the two connected wells in their respective cell culture medium (catalog number 3386 for Transwell® plate). Prior to plating the primary human hepatocytes from Lonza, the Transwell® plate was coated with 0.1 mg/ml collagen (50 μls) (C3867 Sigma—collagen I rat tail solution) (solubilized in 0.1% acetic acid in 1×PBS (v/v)) for 1 hour at 37° C. (cell culture incubator) and washed with 1×PBS. The primary human hepatocytes were sandwiched in the human hepatocyte maintenance medium with 0.3% matrigel GFR (v/v) for the next 20 hours.
The high-throughput microfluidic device illustrated in FIG. 5B was cleaned, assembled and sterilized via autoclaving for 60 minutes. The wells of the autoclave-sterilized high-throughput microfluidic device (with two wells connected for each test unit) were filled with 300 μLs of media and centrifuged at 40 r.c.f for 4 minutes to fill all the flow channels. […] FIG. 12A depicts how the wells are filled, and FIG. 12B illustrates a test unit of the system. […]

[4] = tested on: HCT116 colorectal cancer cells; assay: Hepatocyte-cancer cell crosstalk: prodrug added to hepatocyte well, cell death in connected HCT116 well (live/dead staining); assay type: cell-based; details: increasing concentrations of Tegafur (0, 100, 200, 300 and 400 uM) added to hepatocyte chamber; fluidic flow 72 hours
Protocol: as §1, with “([…] Sigma-collagen” for “(C3867 Sigma—collagen”, “hours. In the other connected well of each test unit, 20,000 HCT116 cells were plated directly on the Transwell® membrane in McCoy's 5A media. For HepG2 cells, the cells were transfected with CYP2A6 cDNA for 48 hours prior to any drug addition. On the day of drug addition, the HCT116 colorectal cancer cells were moved into hepatocyte media in order to prevent mixing of different mediums. The high-throughput microfluidic device illustrated in FIG. 5B was cleaned, assembled and sterilized via autoclaving for 60 minutes. […]” for “hours.”

Compound: bleomycin
- toxicity in multi-organ system [1]: induce lung inflammatory factor-driven cardiotoxicity

Compound: CN[C@@H]1C[C@H]2O[C@@](C)([C@@H]1OC)n1c3ccccc3c3c4c(c5c6ccccc6n2c5c31)C(=O)NC4 [staurosporine]
- cell death (live/dead staining) ([2]; test units with collagen gel plug as diffusion barrier, higher concentration of staurosporine): only a minor increase in cell death
- cell death in the HCT116 cells ([2]; test units without collagen gel, 0 μM, 25 μM and 50 μM staurosporine in connected well, 24 hours of operation): dose-dependent cell death
- cell death (live/dead staining) ([2]; without collagen gel, second image, 25 uM staurosporine): significant cell death
- cell death (live/dead staining) ([2]; without collagen gel, third image, 50 uM staurosporine): much more cell death

Compound: O=c1[nH]c(=O)n(C2CCCO2)cc1F (centres unmarked) [Tegafur]
- propidium iodide stain in the hepatocytes [3]: slight dose dependent increase
- viability of hepatocytes after drug treatment [3]: high viability
- toxicity to HCT116 eGFP cells in the connected wells [4]: significant dose dependent toxicity
